{
  "source": "ChEMBL document CHEMBL1201862",
  "about": "“PubChem BioAssay data set” (2004)",
  "test_in_all_cases": "DTP human tumour cell line panel, 48 h",
  "key": {"DMS-273": {"system": "DMS-273"}, "SK-OV-3": {"system": "SK-OV-3"}, "HOP-18": {"system": "HOP-18"}, "OVCAR-4": {"system": "OVCAR-4"}, "COLO 205": {"system": "COLO 205"}, "LXFL 529": {"system": "LXFL 529"}, "T47D": {"system": "T47D"}, "SNB-19": {"system": "SNB-19"}, "HCC 2998": {"system": "HCC 2998"}, "A549": {"system": "A549"}, "UACC-62": {"system": "UACC-62"}, "DLD-1": {"system": "DLD-1"}, "CAKI-1": {"system": "CAKI-1"}, "RXF 631": {"system": "RXF 631"}, "SK-MEL-2": {"system": "SK-MEL-2"}, "IGROV-1": {"system": "IGROV-1"}, "ACHN": {"system": "ACHN"}, "NCI-H522": {"system": "NCI-H522"}, "SNB-78": {"system": "SNB-78"}, "SNB-75": {"system": "SNB-75"}, "XF498": {"system": "XF498"}, "OVCAR-3": {"system": "OVCAR-3"}, "SW-620": {"system": "SW-620"}, "HCT-15": {"system": "HCT-15"}, "KM12": {"system": "KM12"}, "DMS-114": {"system": "DMS-114"}, "M19-MEL": {"system": "M19-MEL"}, "SF-268": {"system": "SF-268"}, "RXF 393": {"system": "RXF 393"}, "M14": {"system": "M14"}, "DU-145": {"system": "DU-145"}, "LOX IMVI": {"system": "LOX IMVI"}, "MDA-N": {"system": "MDA-N"}, "HL-60": {"system": "HL-60"}, "NCI-H460": {"system": "NCI-H460"}, "Hs-578T": {"system": "Hs-578T"}, "UO-31": {"system": "UO-31"}, "SR": {"system": "SR"}, "MCF7": {"system": "MCF7"}, "NCI/ADR-RES": {"system": "NCI/ADR-RES"}, "HT-29": {"system": "HT-29"}, "SN12C": {"system": "SN12C"}, "786-0": {"system": "786-0"}, "MOLT-4": {"system": "MOLT-4"}, "OVCAR-5": {"system": "OVCAR-5"}, "HOP-92": {"system": "HOP-92"}, "PC-3": {"system": "PC-3"}, "A498": {"system": "A498"}, "OVCAR-8": {"system": "OVCAR-8"}, "EKVX": {"system": "EKVX"}, "SK-MEL-5": {"system": "SK-MEL-5"}, "UACC-257": {"system": "UACC-257"}, "Malme-3M": {"system": "Malme-3M"}, "NCI-H23": {"system": "NCI-H23"}, "RPMI-8226": {"system": "RPMI-8226"}, "HCT-116": {"system": "HCT-116"}, "U-251": {"system": "U-251"}, "BT-549": {"system": "BT-549"}, "KM-20L2": {"system": "KM-20L2"}, "MDA-MB-231": {"system": "MDA-MB-231"}, "SF-539": {"system": "SF-539"}, "TK-10": {"system": "TK-10"}, "CCRF-CEM": {"system": "CCRF-CEM"}, "HOP-62": {"system": "HOP-62"}, "SF-295": {"system": "SF-295"}, "K562": {"system": "K562"}, "MDA-MB-435": {"system": "MDA-MB-435"}, "SK-MEL-28": {"system": "SK-MEL-28"}, "NCI-H226": {"system": "NCI-H226"}},
  "note": "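48-hour exposure; five concentrations; linearly interpolated endpoints. GI50 = concentration required for 50% inhibition of growth.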 Activity calls are given as the source filed them. No stated cut-off is given here; in the data, active = GI50 up to about 1.1 µM and inactive = higher.",
  "data": [
    {"compound": "CC1OC(CC(=O)O)CC2=C1C(=O)c1c(O)cccc1C2=O", "note": "(centres undefined) [NANAOMYCIN]", "values": [
      {"measurement": "GI50", "setting": "DMS-273", "result": "212 nM (active)"},
      {"measurement": "GI50", "setting": "SK-OV-3", "result": "4000 nM (inactive)"},
      {"measurement": "GI50", "setting": "HOP-18", "result": "2410 nM (inactive)"},
      {"measurement": "GI50", "setting": "OVCAR-4", "result": "274 nM (active)"},
      {"measurement": "GI50", "setting": "COLO 205", "result": "47.4 nM (active)"},
      {"measurement": "GI50", "setting": "LXFL 529", "result": "85.1 nM (active)"},
      {"measurement": "GI50", "setting": "T47D", "result": "188 nM (active)"},
      {"measurement": "GI50", "setting": "SNB-19", "result": "1660 nM (inactive)"},
      {"measurement": "GI50", "setting": "HCC 2998", "result": "468 nM (active)"},
      {"measurement": "GI50", "setting": "A549", "result": "2080 nM (inactive)"},
      {"measurement": "GI50", "setting": "UACC-62", "result": "116 nM (active)"},
      {"measurement": "GI50", "setting": "DLD-1", "result": "19.2 nM (active)"},
      {"measurement": "GI50", "setting": "CAKI-1", "result": "95.5 nM (active)"},
      {"measurement": "GI50", "setting": "RXF 631", "result": "600 nM (active)"},
      {"measurement": "GI50", "setting": "SK-MEL-2", "result": "331 nM (active)"},
      {"measurement": "GI50", "setting": "IGROV-1", "result": "360 nM (active)"},
      {"measurement": "GI50", "setting": "ACHN", "result": "229 nM (active)"},
      {"measurement": "GI50", "setting": "NCI-H522", "result": "27.8 nM (active)"},
      {"measurement": "GI50", "setting": "SNB-78", "result": "130 nM (active)"},
      {"measurement": "GI50", "setting": "SNB-75", "result": "1500 nM (inactive)"},
      {"measurement": "GI50", "setting": "XF498", "result": "166 nM (active)"},
      {"measurement": "GI50", "setting": "OVCAR-3", "result": "81.7 nM (active)"},
      {"measurement": "GI50", "setting": "SW-620", "result": "36.1 nM (active)"},
      {"measurement": "GI50", "setting": "HCT-15", "result": 53.8, "unit": "nM"},
      {"measurement": "GI50", "setting": "KM12", "result": "1270 nM (inactive)"},
      {"measurement": "GI50", "setting": "DMS-114", "result": "129 nM (active)"},
      {"measurement": "GI50", "setting": "M19-MEL", "result": "84.5 nM (active)"},
      {"measurement": "GI50", "setting": "SF-268", "result": "316 nM (active)"},
      {"measurement": "GI50", "setting": "RXF 393", "result": "24.2 nM (active)"},
      {"measurement": "GI50", "setting": "M14", "result": "140 nM (active)"},
      {"measurement": "GI50", "setting": "DU-145", "result": "1120 nM (inactive)"},
      {"measurement": "GI50", "setting": "LOX IMVI", "result": "42.1 nM (active)"},
      {"measurement": "GI50", "setting": "MDA-N", "result": "182 nM (active)"},
      {"measurement": "GI50", "setting": "HL-60", "result": "16 nM (active)"},
      {"measurement": "GI50", "setting": "NCI-H460", "result": "1740 nM (inactive)"},
      {"measurement": "GI50", "setting": "Hs-578T", "result": "142 nM (active)"},
      {"measurement": "GI50", "setting": "UO-31", "result": "483 nM (active)"},
      {"measurement": "GI50", "setting": "SR", "result": "33.6 nM (active)"},
      {"measurement": "GI50", "setting": "MCF7", "result": "142 nM (active)"},
      {"measurement": "GI50", "setting": "NCI/ADR-RES", "result": "179 nM (active)"},
      {"measurement": "GI50", "setting": "HT-29", "result": "62.4 nM (active)"},
      {"measurement": "GI50", "setting": "SN12C", "result": "290 nM (active)"},
      {"measurement": "GI50", "setting": "786-0", "result": "137 nM (active)"},
      {"measurement": "GI50", "setting": "MOLT-4", "result": "30.9 nM (active)"},
      {"measurement": "GI50", "setting": "OVCAR-5", "result": "1390 nM (inactive)"},
      {"measurement": "GI50", "setting": "HOP-92", "result": "125 nM (active)"},
      {"measurement": "GI50", "setting": "PC-3", "result": "241 nM (active)"},
      {"measurement": "GI50", "setting": "A498", "result": "900 nM (active)"},
      {"measurement": "GI50", "setting": "OVCAR-8", "result": "128 nM (active)"},
      {"measurement": "GI50", "setting": "EKVX", "result": "708 nM (active)"},
      {"measurement": "GI50", "setting": "SK-MEL-5", "result": "289 nM (active)"},
      {"measurement": "GI50", "setting": "UACC-257", "result": "96.8 nM (active)"},
      {"measurement": "GI50", "setting": "Malme-3M", "result": "203 nM (active)"},
      {"measurement": "GI50", "setting": "NCI-H23", "result": "560 nM (active)"},
      {"measurement": "GI50", "setting": "RPMI-8226", "result": "44.7 nM (active)"},
      {"measurement": "GI50", "setting": "HCT-116", "result": "49.9 nM (active)"},
      {"measurement": "GI50", "setting": "U-251", "result": "1030 nM (active)"},
      {"measurement": "GI50", "setting": "BT-549", "result": "116 nM (active)"},
      {"measurement": "GI50", "setting": "KM-20L2", "result": "225 nM (active)"},
      {"measurement": "GI50", "setting": "MDA-MB-231", "result": "218 nM (active)"},
      {"measurement": "GI50", "setting": "SF-539", "result": "1040 nM (active)"},
      {"measurement": "GI50", "setting": "TK-10", "result": "929 nM (active)"},
      {"measurement": "GI50", "setting": "CCRF-CEM", "result": "19.4 nM (active)"},
      {"measurement": "GI50", "setting": "HOP-62", "result": "1550 nM (inactive)"},
      {"measurement": "GI50", "setting": "SF-295", "result": "1080 nM (active)"},
      {"measurement": "GI50", "setting": "K562", "result": "22 nM (active)"},
      {"measurement": "GI50", "setting": "MDA-MB-435", "result": "138 nM (active)"},
      {"measurement": "GI50", "setting": "SK-MEL-28", "result": "63 nM (active)"},
      {"measurement": "GI50", "setting": "NCI-H226", "result": "977 nM (active)"}
    ]}
  ]
}
